Laboratory results reported in patent publication US20170173114A1, “METHODS AND COMPOSITIONS FOR INDUCTION OF UCP1 EXPRESSION” (Joslin Diabetes Center, Inc., priority 2014, published 2017).
“Also recorded” adds a separate entry of the source.

Tests used:
PGE2-EP4 receptor = molecular target: T1, PGE2-EP4 receptor (Mus musculus, UniProt P32240); test: PGE2-EP4 receptor inhibitor effect on FGF6-induced UCP1 mRNA in WT-1 cells; assay type: cell-based, murine; details: 10 uM, with FGF6 24 hours
T1 construct: endogenous in cells; host or cells: WT-1 murine brown preadipocytes
Protocol: The role of the PGE2-EP4 receptor was also examined. WT-1 brown adipocytes were pretreated with AH-23848 (Sigma Aldrich), a calcium salt which is an inhibitor of the PGE2-EP4 receptor. Following AH-23848 (“AH”) treatment of the WT-1 cells at concentrations of 0 uM and 10 uM, the cells were treated with FGF6 alone in growth media (DMEM+10% FBS), AH alone, or the combination of FGF6 and AH for 24 hours. UCP1 mRNA expression for each group was then determined.

FGF6 mRNA = FGF6 mRNA expression in adipose tissue of mice treated with β3-adrenergic agonist; assay type: in vivo, C57BL/6 mice; details: intraperitoneal 1 mg/kg body weight for 10 days; relative to PBS control
Protocol: (§1) Total RNA was isolated with QIAzol lysis reagent (Qiagen, Valencia, Calif.) and purified by RNeasy Mini columns (Qiagen) following the manufacture's instructions. cDNA was prepared from total RNA using the Advantage RT-PCR kit (BD Biosciences, Palo Alto, Calif.) according to manufacturer's instructions. Diluted cDNA was used in a PCR reaction with SYBR Green Master Mix (Applied Biosystems, Foster City, Calif.) and primers specifically designed for detection of the gene of interest. PCR reactions were run in duplicate for each sample and quantitated in the ABI Sequence Detection System (Applied Biosystems). Data were expressed as arbitrary units after normalization to levels of expression of internal controls for each sample. Sequences of primers for specific genes are each obtained from the published literature or designed using publically available gene sequence databases. Unless otherwise indicated, gene expression data described in the examples below was obtained using QPCR.
CL316,243 was administered by intraperitoneal injection to the mice at a dose of 1 mg/kg body weight for 10 days.

UCP1 = UCP1 mRNA expression (Q-RT-PCR) in WT-1 brown preadipocytes; assay type: cell-based, murine
Protocol: as §1
The effect of FGF6 on differentiation of WT-1 murine brown preadipocytes was also examined. WT-1 cells can be induced to undergo brown adipocyte differentiation, characterized by lipid accumulation and expression of adipogenic and brown fat markers, as described above (Klein et al. (1999) J Biol Chem 274:34795; Tseng et al. (2005) Nat Cell Biol 7:601). WT-1 cells were treated with FGF6 in growth media (DMEM+10% FBS), a vehicle control (“control” or “C” referred to in FIGS. 3A-D), or induction media (“induction” or “I” referred to in FIGS. 3A-D) as described above for seven days. Following the treatment, cells were examined for the color of the culture media in combination with oil Red O staining, expression of adipogenic markers, expression of brown fat markers, immunofluorescent staining of cells with UCP1 and DPAI, and Western blot analysis to determine the presence of UCP1 and β-tubulin. The results are described in FIGS. 3A to 3D.
UCP1 mRNA expression in brown adipocyte cells was determined at FGF6 concentrations ranging from 0 to 300 ng/ml in the absence of induction cocktail.
In order to determine the length of time necessary to induce UCP1 expression upon exposure to of cells to FGF6, an experiment was performed whereby FGF6 was administered to brown preadipocytes at a concentration of 200 ng/ml and UCP1 expression was determined. FGF21 and a control were also used in the time course experiment. FGF21, a member of the endocrine FGF ligands that has been implicated in the browning of white fat (Fisher F. M. et al., Genes Dev. 26:271-281, 2012). […] FGF6 could acutely induce a significant increase of UCP1 expression as early as 4 hours after a 200 ng/ml dose, as described in FIG. 4B. At 24 hours, the fold-induction of UCP1 mRNA by FGF6 reached 700-fold higher than the untreated cells, as described in FIG. 4B.
To assess FGF6's role in the regulation of mitochondrial activity, FGF6 was stably expressed in WT-1 brown preadipocytes and 3T3-F442A white preadipocytes. Stable cells were generated by viral infection followed by drug selection.
FGF2, FGF6 and FGF9 were used at a dosage of 50 ng/mL, 100 ng/mL, 200 ng/mL or 300 ng/mL. FGF21 was used at the dosage of 50 ng/ml and 500 ng/mL. The concentration of BMP7 was 3.3 nM. RNA was isolated and UCP1 and PPARγ expression levels were evaluated by quantitative reverse transcription polymerase chain reaction (Q-RT-PCR) analysis after 24 hours (i.e., 1 day) (FIG. 14A), 2 days (FIG. 14B), 5 days (FIG. 14C) and 7 days (FIG. 14D) of treatment. All experiments were performed triplicate and the data are presented as mean+/−SEM.
FGF2, FGF6 and FGF9 were used at a dosage of 200 ng/mL. FGF21 was used at a dosage of 500 ng/mL. The concentration of BMP7 was 3.3 nM. mRNA was isolated and UCP1 and PPARγ expression levels were evaluated by quantitative reverse transcription polymerase chain reaction (Q-RT-PCR) analysis after 24 hours (i.e., 1 day), 2 days, 5 days and 7 days of treatment (FIG. 15). […]

PTGS2 (COX2) = test: PTGS2 mRNA / COX2 protein expression in WT-1 brown preadipocytes; assay type: cell-based, murine
Protocol: as §1
Cells were harvested in lysis buffer (50 mM HEPES, 137 mM NaCl, 1 mM MgCl2, 1 mM CaCl2, 10 mM Na2P2O7, 10 mM NaF, 2 mM EDTA, 10% glycerol, 1% Igepal CA-630, 2 mM vanadate, 10 μg/ml of leupeptin, 10 μg/ml of aprotinin, 2 mM phenylmethylsulfonyl fluoride; pH 7.4). After lysis, lysates were clarified by centrifugation at 12,000×g for 20 min at 4° C., the amount of protein in the supernatants was determined by the Bradford Protein Assay (Bio-Rad Laboratories, Hercules, Calif.). Proteins were directly solubilized in Laemmli sample buffer. Equal amounts of lysates were separated by sodium dodecyl sulfate-polyacrylamide gel electrophoresis and transferred to Immobolin-P membranes. […] Specifically bound primary antibodies were detected with peroxidase-coupled secondary antibody and enhanced chemiluminescence (ECL, Amersham Biosciences, Piscataway, N.J.).
To determine if FGF4, FGF5, FGF6, FGF10, FGF16, FGF17, FGF18 or FGF20 induced either UCP1 mRNA or PTGS2 mRNA expression, murine brown preadipocyte WT-1 cells (Tseng et al., Nat. Cell. Biol. (2005) 7(6):601-611) were grown in growth media (DMEM-high glucose+10% FBS) supplemented with FGF4, FGF5, FGF6, FGF10, FGF16, FGF17, FGF18, FGF20 or buffer (control) in combination with insulin (20 nM) and triidothyronine (T3, 1 nM) for three days. All FGFs were used at a dosage of 200 ng/mL. mRNA was isolated and UCP1 and PTGS2 gene expression levels were evaluated by quantitative reverse transcription polymerase chain reaction (Q-RT-PCR) analysis. […]
To test the role of specific prostaglandins (PGs) in activating UCP1 expression, WT-1 brown adipocytes were pretreated with PGE2, PGI2 and FGF6 for 24 hours. mRNA expression levels of UCP1, PTGS2, LDHA, PDK1 and PKM2 were then measured.

[1] = system: PPARγ, aP2, FAS, PRDM16, PGC1α, CIDEA; test: Adipogenic and brown fat marker mRNA expression in WT-1 brown preadipocytes; assay type: cell-based, murine
Protocol: as §1, with “QPCR. […]” for “QPCR.”
FGF2, FGF6 and FGF9 were used at a dosage of 50 ng/mL, 100 ng/mL, 200 ng/mL or 300 ng/mL. […] RNA was isolated and UCP1 and PPARγ expression levels were evaluated by quantitative reverse transcription polymerase chain reaction (Q-RT-PCR) analysis after 24 hours (i.e., 1 day) (FIG. 14A), 2 days (FIG. 14B), 5 days (FIG. 14C) and 7 days (FIG. 14D) of treatment. […]

UCP1 protein = UCP1 protein in WT-1 cells (immunofluorescent staining, Western blot); assay type: cell-based, murine; details: WT-1, 200 ng/mL with insulin 20 nM and T3 1 nM; relative to control cells
Protocol: Cells were harvested in lysis buffer (50 mM HEPES, 137 mM NaCl, 1 mM MgCl2, 1 mM CaCl2, 10 mM Na2P2O7, 10 mM NaF, 2 mM EDTA, 10% glycerol, 1% Igepal CA-630, 2 mM vanadate, 10 μg/ml of leupeptin, 10 μg/ml of aprotinin, 2 mM phenylmethylsulfonyl fluoride; pH 7.4). After lysis, lysates were clarified by centrifugation at 12,000×g for 20 min at 4° C., the amount of protein in the supernatants was determined by the Bradford Protein Assay (Bio-Rad Laboratories, Hercules, Calif.). Proteins were directly solubilized in Laemmli sample buffer. Equal amounts of lysates were separated by sodium dodecyl sulfate-polyacrylamide gel electrophoresis and transferred to Immobolin-P membranes. Membranes were blocked overnight at 4° C. and incubated with the indicated antibody for 2 hours at room temperature. Specifically bound primary antibodies were detected with peroxidase-coupled secondary antibody and enhanced chemiluminescence (ECL, Amersham Biosciences, Piscataway, N.J.).
The effect of FGF6 on differentiation of WT-1 murine brown preadipocytes was also examined. WT-1 cells can be induced to undergo brown adipocyte differentiation, characterized by lipid accumulation and expression of adipogenic and brown fat markers, as described above (Klein et al. (1999) J Biol Chem 274:34795; Tseng et al. (2005) Nat Cell Biol 7:601). […]

UCP1 and PTGS2 = UCP1 and PTGS2 mRNA in WT-1 cells undergoing adipocyte differentiation; assay type: cell-based, murine; details: after induction media; 200 ng/mL FGF or 3.3 nM BMP7, 2 days
Protocol: In a separate experiment investigating the ability of FGF proteins to induce UCP1 expression in cells undergoing adipocyte differentiation, WT-1 preadipocyte cells were differentiated by culturing in growth media supplemented with insulin (20 nM) and triiodothyronine (T3, 1 nM) for 3 days, followed by incubation in an induction media (growth medium supplemented 20 nM insulin, 1 nM T3, 0.5 mM isobutyl-methylxanthine, 5 μM dexamethasone) for 2 days. The cell were then exposed to BMP7 (3.3 nM) or 200 ng/mL of FGF2, FGF6 or, FGF9 in growth media supplemented with insulin (20 nM) and triodothyronine (T3, 1 nM) for 2 additional days. Cells were harvested and UCP1 and PTGS2 mRNA expression levels were determined according to the quantitative RT-PCR assay described above. Experiments were performed in triplicate and the data presented as mean+/−SEM.

[2] = 50, 100 or 300 ng/mL with insulin and T3, three days, FGF1 effect at 300 ng/ml
[3] = 200 ng/mL with insulin and T3, three days

T1 sequence (P32240 whole entry): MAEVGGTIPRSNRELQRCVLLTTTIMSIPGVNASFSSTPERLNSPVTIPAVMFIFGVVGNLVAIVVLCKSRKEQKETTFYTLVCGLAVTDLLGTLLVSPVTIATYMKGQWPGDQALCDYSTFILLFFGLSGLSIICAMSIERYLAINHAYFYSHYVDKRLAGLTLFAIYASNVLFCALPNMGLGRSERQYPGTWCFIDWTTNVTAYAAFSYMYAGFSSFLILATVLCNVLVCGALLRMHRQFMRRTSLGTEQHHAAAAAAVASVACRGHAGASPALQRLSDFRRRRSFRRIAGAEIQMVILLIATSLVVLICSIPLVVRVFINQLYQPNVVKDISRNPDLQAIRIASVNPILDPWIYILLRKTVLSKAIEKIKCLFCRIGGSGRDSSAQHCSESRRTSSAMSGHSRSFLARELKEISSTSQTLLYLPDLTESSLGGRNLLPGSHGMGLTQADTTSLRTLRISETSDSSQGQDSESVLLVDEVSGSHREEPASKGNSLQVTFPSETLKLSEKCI

## O=C(O)CC/C=C\CC[C@H]1[C@H](N2CCOCC2)C(=O)C[C@H]1OCc1ccc(-c2ccccc2)cc1 [AH-23848]
PGE2-EP4 receptor
  effect of FGF6 on UCP1 expression in the presence of inhibitor: reduced; also recorded: suppression

## C[C@H](Cc1ccc2c(c1)OC(C(=O)[O-])(C(=O)[O-])O2)NC[C@H](O)c1cccc(Cl)c1.[Na+].[Na+] [CL316,243]
FGF6 mRNA
  FGF6 mRNA expression levels in interscapular BAT and subcutaneous WAT: increased

## FGF1: fibroblast growth factor 1, recombinant human, R&D Systems
UCP1; [2]
  UCP1 mRNA expression: induced expression
PTGS2 (COX2); [2]
  PTGS2 mRNA expression: induced expression

## FGF2: fibroblast growth factor 2, recombinant human, R&D Systems
UCP1; 50-300 ng/mL with insulin and T3, 1, 2, 5 and 7 days, dose-responsive
  UCP1 expression level: very high levels of UCP1
UCP1; FGF2, FGF6, FGF9 200 ng/mL, FGF21 500 ng/mL, with insulin and T3, 1, 2, 5, 7 days
  UCP1 expression level, time course: very high levels of UCP1
[1]; 200 ng/mL with insulin and T3, 1, 2, 5, 7 days
  PPARγ expression level, time course: very low levels of PPARγ
[1]; 50-300 ng/mL with insulin and T3, 1, 2, 5 and 7 days
  PPARγ expression level: very low levels of PPARγ
UCP1 protein
  UCP1 protein, immunofluorescent staining: significant levels of staining
UCP1 and PTGS2
  PTGS2 mRNA expression in cells undergoing adipocyte differentiation: able to induce
  UCP1 mRNA expression in cells undergoing adipocyte differentiation: able to induce

## FGF16: fibroblast growth factor 16
UCP1; [3]
  expression of UCP1: minimal expression

## FGF20: fibroblast growth factor 20
PTGS2 (COX2); [3]
  PTGS2 mRNA expression relative to the control: increased
